In one test the test system is 282377-053-R-J1-PDC complex spheroids, viability. The test is described as follows: Anticancer human tumor 282377-053-R-J1-PDC patient-derived colon adenocarcinoma cell line growth inhibition [GQUAD]. To be noted: curve of first compound; second compound 0.0316 µM. From the text: DNA G-quadruplex Stabilizer Agents in Combinations in Complex Spheroids
A high-throughput screen of multi-cell type tumor spheroids was designed to identify active combinations of DNA G-quadruplex stabilizer agents and targeted small molecules. Complex spheroids include a stromal component modeled by human endothelial cells (HUVEC) and fibroblasts modeled by human mesenchymal stem cells (MSCs). The concentration ranges selected for each drug and investigational agent were based upon clinically achievable concentrations if the clinical Cmax of the agent was known.
Compounds. The drugs and investigational agents: pidnarulex (CX-5461; NSC782164), APTO-253 (NSC789042), BRACO-19 (NSC847499), peposertib (NSC802822), ceralasertib (NSC780249), elimusertib (NSC800525), camonsertib (NSC841442), AZD-1390 (NSC803789), olaparib (NSC753686), talazoparib (NSC767125), ART-558 (NSC835418), sotorasib (NSC818433), MRTX-1133 (NSC836407), SN-38 (NSC673596), topotecan (NSC609699), etoposide (NSC141540), doxorubicin (NSC123127), gemcitabine (NSC613327), 5-fluorouracil (NSC19893), paclitaxel (NSC125973), vemurafenib (NSC761431), panobinostat (NSC761190), R-306465 (JNJ-16241199; NSC773264), adavosertib (NSC754352), TP-3654 (NSC805149), carboplatin (NSC241240), KSQ-4279 (NSC840948), and staurosporine (NSC755774) were obtained from the National Cancer Institute (NCI) Developmental Therapeutics Program Chemical Repository (34). The FDA-approved anticancer drug set is available from the NCI Developmental Therapeutics Program. […] The stock solutions were prepared in dimethyl sulfoxide (DMSO, Sigma-Aldrich, St. Louis, MO, cat. D2650) at 800-fold the tested concentration and stored at -70 degrees C prior to their use. All drugs and investigational agents were tested over a range starting from a high concentration at or near the clinical Cmax and decreasing in half-log increments. If the clinical Cmax for an agent had not been determined, the highest concentration tested was 10 microM.
2.3 Cell Culture. All cells were maintained in an incubator at 37 degrees C and 5% CO2 with 95% humidity. The PDC lines were cultured according to standard operating procedures established by the NCI PDMR. All PDCs were thawed and cultured in Matrigel-coated flasks prepared with a working solution of 1X Ham's F-12 nutrient mix, without supplementation (Invitrogen, cat. 11765054), 100 U/mL penicillin-streptomycin (Invitrogen, cat. 15140122), and 2.5% Matrigel (Corning Inc., cat. 354248) for the first three passages. The 857933-349-R-J2-PDC line was cultured in 6C/Colon 1B media, which includes advanced DMEM/F-12 (Thermo Fisher Scientific, cat. 12634028), 10 mM HEPES (Thermo Fisher Scientific, cat. 15630080), 1X GlutaMAX supplement (Thermo Fisher Scientific, cat. 35050061), 0.1 mg/mL primocin (InvivoGen, cat. ant-pm-2), 10% defined fetal bovine serum, heat inactivated (HyClone Laboratories Inc., cat. SH30070.03HI), 50% L-WRN conditioned media (ATCC, cat. CRL-3276), 1.25 mM N-Acetyl-L-cysteine (Sigma-Aldrich, cat. A9165), 10 mM nicotinamide (Sigma-Aldrich, cat. N0636), 1X B-27 supplement (Thermo Fisher Scientific, cat. 17504044), 1X N-2 supplement (Thermo Fisher Scientific, cat. 17502048), 10 microM Y-27632 dihydrochloride (Tocris Bioscience, cat. 1254), and 50 ng/mL human EGF recombinant protein (Thermo Fisher Scientific, cat. PHG0311). The 485176-168-R4-J1-PDC line was cultured in Panc media, which includes all 6C/Colon 1B media components plus 100 ng/mL human FGF-10 (Thermo Fisher Scientific, cat. 100-26), 500 nM SB-431542 (Selleckchem, cat. S1067), and gastrin (Tocris, cat. 3006).
[…]
For `C#Cc1c(F)ccc2cc(O)cc(-c3ncc4c(N5CC6CCC(C5)N6)nc(OCC56CCCN5CC(F)C6)nc4c3F)c12` (stereo not given) + CN(C)c1ccc(Nc2c3ccc(NC(=O)CCN4CCCC4)cc3nc3cc(NC(=O)CCN4CCCC4)ccc23)cc1, the IC50 was > 10 µM.
Turning to `C=CC(=O)N1CCN(c2nc(=O)n(-c3c(C)ccnc3C(C)C)c3nc(-c4c(O)cccc4F)c(F)cc23)C(C)C1` (stereo not given) + CN(C)c1ccc(Nc2c3ccc(NC(=O)CCN4CCCC4)cc3nc3cc(NC(=O)CCN4CCCC4)ccc23)cc1, the IC50 is > 10 µM.
As for `COc1cccc2c1C(=O)c1c(O)c3c(c(O)c1C2=O)CC(O)(C(=O)CO)CC3OC1CC(N)C(O)C(C)O1` (stereo not given) + CN(C)c1ccc(Nc2c3ccc(NC(=O)CCN4CCCC4)cc3nc3cc(NC(=O)CCN4CCCC4)ccc23)cc1, the IC50 was found to be 1.53 µM.

The test is the same for the next values; noted with them: curve of first compound; second compound 0.1 µM.
Consider `C#Cc1c(F)ccc2cc(O)cc(-c3ncc4c(N5CC6CCC(C5)N6)nc(OCC56CCCN5CC(F)C6)nc4c3F)c12` (stereo not given) + CN(C)c1ccc(Nc2c3ccc(NC(=O)CCN4CCCC4)cc3nc3cc(NC(=O)CCN4CCCC4)ccc23)cc1, for which the IC50 is > 10 µM.
Same read-out and setting: for `C=CC(=O)N1CCN(c2nc(=O)n(-c3c(C)ccnc3C(C)C)c3nc(-c4c(O)cccc4F)c(F)cc23)C(C)C1` (stereo not given) + CN(C)c1ccc(Nc2c3ccc(NC(=O)CCN4CCCC4)cc3nc3cc(NC(=O)CCN4CCCC4)ccc23)cc1 the value was > 10 µM; for `COc1cccc2c1C(=O)c1c(O)c3c(c(O)c1C2=O)CC(O)(C(=O)CO)CC3OC1CC(N)C(O)C(C)O1` (stereo not given) + CN(C)c1ccc(Nc2c3ccc(NC(=O)CCN4CCCC4)cc3nc3cc(NC(=O)CCN4CCCC4)ccc23)cc1, 1.89 µM.

Still in this test, the particulars now being: curve of first compound; second compound 0.316 µM.
With `C#Cc1c(F)ccc2cc(O)cc(-c3ncc4c(N5CC6CCC(C5)N6)nc(OCC56CCCN5CC(F)C6)nc4c3F)c12` (stereo not given) + CN(C)c1ccc(Nc2c3ccc(NC(=O)CCN4CCCC4)cc3nc3cc(NC(=O)CCN4CCCC4)ccc23)cc1, the IC50 was > 10 µM.
For the compound `C=CC(=O)N1CCN(c2nc(=O)n(-c3c(C)ccnc3C(C)C)c3nc(-c4c(O)cccc4F)c(F)cc23)C(C)C1` (stereo not given) + CN(C)c1ccc(Nc2c3ccc(NC(=O)CCN4CCCC4)cc3nc3cc(NC(=O)CCN4CCCC4)ccc23)cc1, the IC50 is > 10 µM.
The same measure, in the same setting: for `COc1cccc2c1C(=O)c1c(O)c3c(c(O)c1C2=O)CC(O)(C(=O)CO)CC3OC1CC(N)C(O)C(C)O1` (stereo not given) + CN(C)c1ccc(Nc2c3ccc(NC(=O)CCN4CCCC4)cc3nc3cc(NC(=O)CCN4CCCC4)ccc23)cc1 the value was 1.95 µM.

Still in this test, the particulars now being: curve of first compound; second compound 1 µM.
Take `C#Cc1c(F)ccc2cc(O)cc(-c3ncc4c(N5CC6CCC(C5)N6)nc(OCC56CCCN5CC(F)C6)nc4c3F)c12` (stereo not given) + CN(C)c1ccc(Nc2c3ccc(NC(=O)CCN4CCCC4)cc3nc3cc(NC(=O)CCN4CCCC4)ccc23)cc1: the IC50 is > 10 µM.
In the case of `C=CC(=O)N1CCN(c2nc(=O)n(-c3c(C)ccnc3C(C)C)c3nc(-c4c(O)cccc4F)c(F)cc23)C(C)C1` (stereo not given) + CN(C)c1ccc(Nc2c3ccc(NC(=O)CCN4CCCC4)cc3nc3cc(NC(=O)CCN4CCCC4)ccc23)cc1, the IC50 is > 10 µM.
With `COc1cccc2c1C(=O)c1c(O)c3c(c(O)c1C2=O)CC(O)(C(=O)CO)CC3OC1CC(N)C(O)C(C)O1` (stereo not given) + CN(C)c1ccc(Nc2c3ccc(NC(=O)CCN4CCCC4)cc3nc3cc(NC(=O)CCN4CCCC4)ccc23)cc1, the IC50 was 2.26 µM.

Staying with this test, now noted: curve of first compound; second compound 3.16 µM.
For the compound `C#Cc1c(F)ccc2cc(O)cc(-c3ncc4c(N5CC6CCC(C5)N6)nc(OCC56CCCN5CC(F)C6)nc4c3F)c12` (stereo not given) + CN(C)c1ccc(Nc2c3ccc(NC(=O)CCN4CCCC4)cc3nc3cc(NC(=O)CCN4CCCC4)ccc23)cc1, the IC50 is > 10 µM.
The same measure, in the same setting: the result for `C=CC(=O)N1CCN(c2nc(=O)n(-c3c(C)ccnc3C(C)C)c3nc(-c4c(O)cccc4F)c(F)cc23)C(C)C1` (stereo not given) + CN(C)c1ccc(Nc2c3ccc(NC(=O)CCN4CCCC4)cc3nc3cc(NC(=O)CCN4CCCC4)ccc23)cc1 reads > 10 µM.
Regarding `COc1cccc2c1C(=O)c1c(O)c3c(c(O)c1C2=O)CC(O)(C(=O)CO)CC3OC1CC(N)C(O)C(C)O1` (stereo not given) + CN(C)c1ccc(Nc2c3ccc(NC(=O)CCN4CCCC4)cc3nc3cc(NC(=O)CCN4CCCC4)ccc23)cc1, the IC50 amounted to 2.06 µM.

What is called IC50 is the concentration needed to halve the response being measured.
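Further: spheroids exposed to compounds for 7 days before readout.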
